In patent US20250145631A1, “HETEROCYCLIC COMPOUND ACTING ON G12D MUTANT KRAS PROTEIN” (Astellas Pharma Inc., priority 2022, published 2025):
Counter-ions that a name gives are not always drawn.

Tests used:
Format in all cases: cell-based
[1] = biological target: T1, KRAS G12D (Homo sapiens, UniProt P01116, G12D); assay: KRAS degradation activity by Cell ELISA in AsPC-1 cells (Test Example 1); details: Cell ELISA; for Dmax: ASPC1, overnight treatment, read-out: Dmax (degradation rate at the concentration showing highest degradation); for DC50: overnight treatment, read-out: DC50 (50% degradation concentration of KRAS)
T1 construct: host or cells: AsPC-1 (human pancreatic cancer line)
How it was run: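 AsPC-1 cells (2.0×10^4/well) treated overnight with compounds at 10 μM–0.3 nM (10 points), then fixed, permeabilised and stained for KRAS G12D (800 nm) and β-actin (700 nm) by in-cell ELISA. KRAS signal normalised to β-actin, DMSO set as 0% and actin-only staining as 100%; DC50 from Sigmoid-Emax regression up to Dmax.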

[2] = system: phosphorylation of ERK (Thr202/Tyr204); assay: ERK phosphorylation inhibitory effect by Cell ELISA in AsPC-1 cells (Test Example 2); details: Homo sapiens, ASPC1, overnight treatment, Cell ELISA, read-out: IC50 (ERK phosphorylation inhibition)
How it was run: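 AsPC-1 cells (2.0×10^4/well, RPMI 1640 + 10% FBS) treated overnight with compounds (10 points, 10 μM to 0.3 nM final), then glyoxal-fixed and immunostained for phospho-ERK with IRDye 800CW secondary; 800-nm fluorescence read. IC50 by Sigmoid-Emax regression, normalized to DMSO (100%) and 1 μM trametinib (0%).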

[3] = system: human G12D mutant KRAS-positive pancreatic cancer line AsPC-1; assay: Non-anchorage-dependent cell growth inhibitory effect, spheroid 3D culture (Test Example 3); details: ASPC1, 144 h, AsPC-1 spheroid 3D culture, 6 days; for IC50: CellTiter Glo 2.0, read-out: IC50 (non-anchorage-dependent cell growth inhibition)
How it was run: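 AsPC-1 cells grown as spheroids in RPMI 1640 with 10% FBS at 37° C, 5% CO2, then exposed to compounds (10 μM to 0.3 nM final) for 6 days. Viability read by CellTiter Glo 2.0 luminescence. IC50 from Sigmoid-Emax regression with DMSO as 100% and cell-free medium as 0%.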

T1 sequence (P01116 1-188 isoform P01116-2 G12D): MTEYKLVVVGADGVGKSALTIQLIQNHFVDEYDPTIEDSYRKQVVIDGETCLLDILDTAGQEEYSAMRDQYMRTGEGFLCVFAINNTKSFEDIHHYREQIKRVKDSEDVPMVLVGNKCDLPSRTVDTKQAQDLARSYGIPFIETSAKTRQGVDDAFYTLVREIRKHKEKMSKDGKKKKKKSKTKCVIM

SMILES | Dmax [1] | DC50 [1] | IC50 [2] | IC50 [3] | inhibition at 10 µM ([3]; at 10 μM, read-out: cell growth inhibition at the highest concentration evaluated)
CC[C@H]1CN(Cc2ccc3c(N4CCC(=O)NC4=O)nn(C)c3c2)CCN1C(=O)c1ccc(COc2c(-c3c(C)c(F)cc4[nH]ncc34)c(C3CC3)cc3c(N4C[C@@H]5C[C@H]4CN5)nc(OC4CCOCC4)nc23)cc1 (atropisomer, axis not shown) [Example 25] | 70% | 856 nM | 668 nM | 460 nM | 
Cc1c(F)cc2[nH]ncc2c1-c1c(C2CC2)cc2c(N3C[C@@H]4C[C@H]3CN4)nc(OC3CCOCC3)nc2c1OCc1ccc(C(=O)N2CCN(CCOc3cccc(N4CCC(=O)NC4=O)c3)CC2)cc1 (atropisomer, axis not shown) [Example 28] | 54% | 5530 nM | 2190 nM | 2020 nM | 
Cc1c(F)cc2[nH]ncc2c1-c1c(C2CC2)cc2c(N3C[C@@H]4C[C@H]3CN4)nc(OC3CCOCC3)nc2c1OCc1ccc(C(=O)N2CCN(Cc3ccc4c(c3)n(C)c(=O)n4C3CCC(=O)NC3=O)C[C@H]2C)cc1 (some centres unmarked) [Example 9] | 65% | 55 nM | 69 nM | 90 nM | 
Cc1c(F)cc2[nH]ncc2c1-c1c(C2CC2)cc2c(N3C[C@@H]4C[C@H]3CN4)nc(OC3CCOCC3)nc2c1OCc1ccc(C(=O)N2CCN(Cc3ccc4c(N5CCC(=O)NC5=O)nn(C)c4c3)C[C@@H]2C)cc1 (atropisomer, axis not shown; (M)) [Example 16, 1-(6-{[(3S)-4-{4-[({(7M)-6-cyclopropyl-4-[(1S,4S)-2,5-diazabicyclo[2.2.1]heptan-2-yl]-7-(6-fluoro-5-methyl-1H-indazol-4-yl)-2-[(oxan-4-yl)oxy]quinazolin-8-yl}oxy)methyl]benzoyl}-3-methylpiperazin-1-yl]methyl}-1-methyl-1H-indazol-3-yl)-1,3-diazinane-2,4-dione n hydrochloride] | 86% | 71 nM | 158 nM | 73 nM | 
Cc1c(F)cc2[nH]ncc2c1-c1c(C2CC2)cc2c(N3C[C@@H]4C[C@H]3CN4)nc(OC3CCOCC3)nc2c1OCc1ccc(C(=O)N2CC[C@H](N(C)Cc3ccc4c(N5CCC(=O)NC5=O)nn(C)c4c3)C2)cc1 (atropisomer, axis not shown) [Example 20] | 78% | 488 nM | 1070 nM | 884 nM | 
Cc1c(F)cc2[nH]ncc2c1-c1c(C2CC2)cc2c(N3C[C@@H]4C[C@H]3CN4)nc(OC3CCOCC3)nc2c1OCc1ccc(C(=O)N2CCN(Cc3ccc4c(c3)CN(C3CCC(=O)NC3=O)C4=O)C[C@@H]2C)cc1 (stereo partly drawn) [Example 33, 3-(5-{[(3S)-4-{4-[({(7M)-6-cyclopropyl-4-[(1S,4S)-2,5-diazabicyclo[2.2.1]heptan-2-yl]-7-(6-fluoro-5-methyl-1H-indazol-4-yl)-2-[(oxan-4-yl)oxy]quinazolin-8-yl}oxy)methyl]benzoyl}-3-methylpiperazin-1-yl]methyl}-1-oxo-1,3-dihydro-2H-isoindol-2-yl)piperidine-2,6-dione] | 88% | 79 nM | 102 nM | 142 nM | 

More lines, in order of falling DC50 [1], values ahead:

Dmax [1] | DC50 [1] | IC50 [2] | IC50 [3] | SMILES | inhibition at 10 µM ([3]; at 10 μM, read-out: cell growth inhibition at the highest concentration evaluated)
67% | 5220 nM | 2020 nM | 1350 nM | Cc1c(F)cc2[nH]ncc2c1-c1c(C2CC2)cc2c(N3C[C@@H]4C[C@H]3CN4)nc(OC3CCOCC3)nc2c1OCc1ccc(C(=O)N2CCN(Cc3ccc(CN4CCC(=O)NC4=O)cc3F)C[C@@H]2C)cc1 (atropisomer, axis not shown) [Example 26] | 
59% | 4900 nM | 4770 nM |  | Cc1c(F)cc2[nH]ncc2c1-c1c(C2CC2)cc2c(N3C[C@@H]4C[C@H]3CN4)nc(OC3CCOCC3)nc2c1OCc1ccc(C(=O)N2CCC(CN3CCN(c4cc5c(cc4F)C(=O)N(C4CCC(=O)NC4=O)C5=O)CC3)CC2)cc1 (some centres unmarked) [Example 2] | 55%
89% | 294 nM | 365 nM | 399 nM | Cc1c(F)cc2[nH]ncc2c1-c1c(C2CC2)cc2c(N3C[C@@H]4C[C@H]3CN4)nc(OC3CCOCC3)nc2c1OCc1ccc(C(=O)N2CCN(CCc3ccc4c(c3)c(N3CCC(=O)NC3=O)nn4C)C[C@@H]2C)cc1 (atropisomer, axis not shown) [Example 42] | 
85% | 202 nM | 200 nM | 476 nM | Cc1c(F)cc2[nH]ncc2c1-c1c(C2CC2)cc2c(N3C[C@@H]4C[C@H]3CN4)nc(OC3CCOCC3)nc2c1OCc1ccc(C(=O)N2CCN(Cc3ccn4c(N5CCC(=O)NC5=O)cnc4c3)C[C@@H]2C)cc1 (atropisomer, axis not shown; (M)) [Example 34, 1-(7-{[(3S)-4-{4-[({(7M)-6-cyclopropyl-4-[(1S,4S)-2,5-diazabicyclo[2.2.1]heptan-2-yl]-7-(6-fluoro-5-methyl-1H-indazol-4-yl)-2-[(oxan-4-yl)oxy]quinazolin-8-yl}oxy)methyl]benzoyl}-3-methylpiperazin-1-yl]methyl}imidazo[1,2-a]pyridin-3-yl)-1,3-diazinane-2,4-dione] | 
86% | 22 nM | 31 nM | 51 nM | CO[C@H](C)COc1nc(N2C[C@@H]3C[C@H]2CN3)c2cc(C3CC3)c(-c3c(C)c(F)cc4[nH]ncc34)c(OCc3ccc(C(=O)N4CCN(Cc5ccc6c(c5)n(C)c(=O)n6C5CCC(=O)NC5=O)C[C@@H]4C)cc3)c2n1 (some centres unmarked) [Example 38] | 
